Key:
ZR-75-1 cells [1] = experiment: Cell proliferation assay, tritiated thymidine incorporation; assay type: cell-based, human; conditions: for cell proliferation: Example 1, six day period
Protocol: The βAED, 17 beta-oestradiol and tamoxifen were obtained from Sigma Chemical Company (St. Louis, Missouri). The αAED and Flutamide were obtained from Steriloid, Inc. (Walton, New Hampshire) and Schering Corporation (Kenilworth, New Jersey), respectively. All steroids except βAED were dissolved in ethanol. βAED was dissolved in DMSO:ETHOL (1:1 v/v). Stock solutions were filtered and kept at 4°C. For testing, stock solutions were diluted in media immediately before use. The final concentration of vehicle was always ≤ 0.2% in all samples, and this concentration had no significant cytotoxic effect on the human breast cell cancer cell line designated ZR-75-1 (American Type Culture Collection) as determined by trypan blue exclusion.
The ZR-75-1 cell line (passage 89) was obtained from the American Type Culture Collection (Rockville, Maryland). The cells were cultured in RPMI-1640 medium containing 10% heat-inactivated fetal calf serum, 200 µM L-glutamine, […], 1.5 U/ml penicillin, and 1.5 µg/ml streptomycin in 5% CO2 at 37°C. The cells were passaged twice weekly.
(§1) Cells were first seeded at initial density of 1x10^5 cells per ml in quadruplicates in 24 multi-well flat bottom plates (Costar). Cells were then allowed to adhere and grow in phenol red-free […] media supplemented with 10 % heat-inactivated fetal calf serum (FCS), 200 µM L-glutamine, 10 mM HEPES, 2.5 U/ml penicillin and 2.5 µg/ml streptomycin in 5% CO2 at 37°C. After 48 hours, four wells were sacrificed and counted to determine plating efficiency. In the remaining wells, medium was removed by aspiration and cells in each well were exposed to the media containing the specified steroid. The controls containing only medium or medium with vehicle were also prepared. In all samples, medium was changed every 48 hours. At the pre-established time-point. Cells were removed by trypsinization and washed. Cell number and viability were determined by trypan blue exclusion using a hemocytometer. Parallel cultures were also run to determine cell proliferation.
(§2) For cell proliferation assays, cell suspensions were prepared by trypsinization of cells from cultures prepared in accord with methods described above. Cell viability was determined by trypan blue exclusion. The cells were then seeded in flat-bottom 96-well microtiter plates at a density of 2X10^3 cells/well and were allowed to rest for 48 hours in order to adhere. Non-adherent dead cells were removed by aspiration. Cells were then grown in media without phenol red. Some of the media contained supplements as indicated above. The active agents or vehicle control were added to the media. The cells were then grown for six days. Media was changed on the samples every 48 hours. On day 6, cells were pulsed with 1 µCi[…] for the last 6 hours of incubation before harvesting onto glass filter using a HPD cell harvester (Cambridge Technology, Watertown, Massachusetts) and counted on a KLB scintillation counter.

ZR-75-1 cells [2] = experiment: Cell count and viability by trypan blue exclusion; assay type: cell-based, human
Protocol: as §1
Initial tests were carried out to determine the optimal (maximal) dose of αAED required to inhibit growth of the ZR-75-1 cells in in vitro as determined by tritiated tymidine incorporation. […] To ensure that inhibition was not due to cytotoxicity, cell count and viability were assessed by trypan blue exclusion.

P388D1 cells = experiment: Growth of lymphoid neoplasm cells in the presence of RU486; assay type: cell-based; conditions: Example 8; RU486 at 0.5 µM and 1.0 µM
Protocol: as §2
Effect of αAED on growth of lymphoid neoplasm (P388D1 cells obtained from the American Type Culture Collection) in the presence of RU486 at concentration of 0.5 µM and 1.0 µM was studied in accord with the methods described above.

RAW 264.7 = experiment: Proliferation of murine macrophage myeloma cells; assay type: cell-based; conditions: Example 9
Protocol: as §2
Effects of αAED at doses of 50 ηM and 100 ηM doses on murine macrophage myeloma cells (RAW 264.7, obtained from the American Type Culture Collection) was studied.

Row | Structure (SMILES) | cell proliferation (ZR-75-1 cells [1]; 6.25 ηM) | cell proliferation (ZR-75-1 cells [1]; 25 ηM) | cell proliferation (ZR-75-1 cells [1]; 50 ηM) | proliferation of cells in the presence of βAED (ZR-75-1 cells [1]; Example 2, varied αAED with βAED constant at 2.5 ηM) | proliferation in the presence of estradiol (ZR-75-1 cells [1]; Example 3, higher doses of αAED with 1 ηM estradiol, 6 day period) | antiproliferative effects in the presence of Flutamide (ZR-75-1 cells [1]; Example 4, ≥6.25 ηM αAED) | synergism with RU486 (ZR-75-1 cells [1]; Example 5, RU486 1 µM) | proliferation of cells in the presence of RU486 (ZR-75-1 cells [1]; Example 5, concentrations of αAED with 0.5 µM RU486) | IC50 (ZR-75-1 cells [1]; Homo sapiens, dose and time-dependent inhibition of ZR-75-1 growth, read-out: half-maximal dose (anti-proliferative effect)) | growth of ZR-75-1 cells (ZR-75-1 cells [1]; concentration of 25 ηM or greater) | proliferation of ZR-75-1 cells (ZR-75-1 cells [1]; concentrations between 6.25 and 12.5 ηM, P<0.01 vs vehicle control) | maximal dose (anti-proliferative effect) (ZR-75-1 cells [1]; dose and time-dependent inhibition of ZR-75-1 growth) | effect on the growth of cells (ZR-75-1 cells [1]; doses ranging from 3.13 ηM to 50 ηM, compared to vehicle control after 6 days) | cytotoxicity (cell count and viability) (ZR-75-1 cells [2]) | growth of lymphoid neoplasm in combination with RU486 (P388D1 cells) | proliferation (RAW 264.7; 50 ηM) | proliferation (RAW 264.7; 100 ηM) | antiproliferative effect on the growth of ZR-75-1 cells (ZR-75-1 cells [1]; alone at 100 ηM)
1 | C[C@]12CC[C@H]3[C@@H](CC=C4C[C@@H](O)CC[C@@]43C)[C@@H]1CC[C@H]2O [αAED, 5-androstene 3ß,17α diol] | increasing proliferation | decreasing cell proliferation | marked decrease | decreased proliferation at all concentrations | suppressed proliferation even in the presence of estradiol | greatly enhanced | even greater | synergistic action to decrease proliferation of cells | 50 nM | significantly inhibited the growth | stimulated proliferation | 100 ηM | biphasic effect | not toxic to the cells | increased effectiveness over use of one agent | significant inhibition of proliferation | significant inhibition of proliferation | 
2 | C[C@]12CC[C@H]3[C@@H](CC=C4C[C@@H](O)CC[C@@]43C)[C@@H]1CC[C@@H]2O [βAED, 5-androstene 3ß,17ß diol, reference compound] |  |  |  |  |  |  |  |  |  |  |  |  |  |  |  |  |  | did not have any antiproliferative effect

— patent publication EP1362591A1, “Use of a composition containing 5-androstene-3 beta, 17-alpha diol” (LORIA, Roger M., priority 1996, dated 1997)
